ChEMBL document CHEMBL1143605, “A pharmacophore hypothesis for P-glycoprotein substrate recognition using GRIND-based 3D-QSAR” (2005)

Test system: MES-SA
Assay: Inhibition of compound against MES-SA/DX5 cell line was determined using P-glycoprotein assay
Type: functional, Homo sapiens

SMILES | log10 % Pgp inhibition vs cyclosporin A
CN(C)CCOC(C)(c1ccccc1)c1ccc(Cl)cc1 (stereo unspecified) [CHLORPHENOXAMINE] | 0.91
CCN(CC)CC#CCOC(=O)C(O)(c1ccccc1)C1CCCCC1 (stereo unspecified) [OXYBUTYNIN] | 1.12
OCc1cc(C(O)CNCCCCCCOCCCCc2ccccc2)ccc1O (stereo unspecified) [SALMETEROL] | 0.83
CC(C)COCC(CN(Cc1ccccc1)c1ccccc1)N1CCCC1 (stereo unspecified) [BEPRIDIL] | 1.56
CC(=O)c1ccc2c(c1)N(CCCN(C)C)c1ccccc1S2 [ACEPROMAZINE] | 0.8
CCc1nn(CCCN2CCN(c3cccc(Cl)c3)CC2)c(=O)n1CCOc1ccccc1 [NEFAZODONE] | 1.83
C=CC1CN2CCC1CC2C(=O)c1ccnc2ccc(OC)cc12 (stereo unspecified) | 1.26
CC(C)(C)c1ccc(C(=O)CCCN2CCC(OC(c3ccccc3)c3ccccc3)CC2)cc1 [EBASTINE] | 1.76
COc1ccc([C@@H]2Sc3ccccc3N(CCN(C)C)C(=O)[C@@H]2OC(C)=O)cc1 [DILTIAZEM] | 1.18
CCCCc1oc2ccccc2c1C(=O)c1cc(I)c(OCCN(CC)CC)c(I)c1 [AMIODARONE] | 1.46
CCSc1ccc2c(c1)N(CCCN1CCN(C)CC1)c1ccccc1S2 [THIETHYLPERAZINE] | 1.26
Cc1nc2sccn2c(=O)c1CCN1CCC(=C(c2ccc(F)cc2)c2ccc(F)cc2)CC1 [RITANSERIN] | 1.69
C[C@H]1C[C@H]2[C@@H]3CCC4=CC(=O)C=C[C@]4(C)[C@H]3C(=O)C[C@]2(C)[C@@]1(O)C(=O)CO [MEPREDNISONE] | 0.86
CC(C)(C)c1ccc(C(O)CCCN2CCC(C(O)(c3ccccc3)c3ccccc3)CC2)cc1 (stereo unspecified) [TERFENADINE] | 1.65
CSc1ccc2c(c1)N(CCC1CCCCN1C)c1ccccc1S2 (stereo unspecified) [THIORIDAZINE] | 1.65
CCCCOc1cc(C(=O)OCCN(CC)CC)ccc1N [BENOXINATE] | 0.84
COc1ccc(CCN(C)CCCC(C#N)(c2ccc(OC)c(OC)c2)C(C)C)cc1OC (stereo unspecified) [VERAPAMIL] | 1.63
CCC(COC(=O)c1cc(OC)c(OC)c(OC)c1)(c1ccccc1)N(C)C (stereo unspecified) [TRIMEBUTINE] | 1.75
CC[C@H]1CN2CCc3cc(OC)c(OC)cc3[C@@H]2C[C@@H]1C[C@H]1NCCc2cc(OC)c(OC)cc21 [EMETINE] | 0.88
CN1CCN(CC/C=C2/c3ccccc3Sc3ccc(S(=O)(=O)N(C)C)cc32)CC1 [THIOTHIXENE] | 1.23
CC(C)/N=c1\cc2n(-c3ccc(Cl)cc3)c3ccccc3nc-2cc1Nc1ccc(Cl)cc1 [CLOFAZIMINE] | 1.8
CN(C)CC/C=C1/c2ccccc2Sc2ccc(Cl)cc21 [CHLORPROTHIXENE] | 1.27
CN(C)C(=O)C(CCN1CCC(O)(c2ccc(Cl)cc2)CC1)(c1ccccc1)c1ccccc1 [LOPERAMIDE] | 1.58
CCN(CC)C(=O)N[C@H]1C[C@@H]2c3cccc4[nH]cc(c34)C[C@H]2N(C)C1 [TERGURIDE] | 1
CN1CCCC(n2nc(Cc3ccc(Cl)cc3)c3ccccc3c2=O)CC1 (stereo unspecified) [AZELASTINE] | 1.75
OCCN1CCN(CCCN2c3ccccc3Sc3ccc(C(F)(F)F)cc32)CC1 [FLUPHENAZINE] | 1.4
